Source: ChEMBL document CHEMBL1201862, “PubChem BioAssay data set” (2004)
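Cells were grown in 96-well plates and exposed to each compound for 48 hours at five concentrations; endpoints were interpolated linearly between bracketing concentrations, or set to the highest concentration if not reached. GI50 is the concentration that inhibits growth by half.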 The source made the active and inactive calls. Rule as the data show it: active = GI50 up to about 1.1 µM and inactive = higher.

Experiments:
Assay in all cases: NCI anticancer screen, dose series, 48 h
SK-MEL-28 = test system: SK-MEL-28
UACC-257 = test system: UACC-257
NCI-H226 = test system: NCI-H226
HCT-116 = test system: HCT-116
SF-539 = test system: SF-539
EKVX = test system: EKVX
OVCAR-5 = test system: OVCAR-5
786-0 = test system: 786-0
SN12C = test system: SN12C
M14 = test system: M14
DU-145 = test system: DU-145
A498 = test system: A498
PC-3 = test system: PC-3
K562 = test system: K562
UO-31 = test system: UO-31
ACHN = test system: ACHN
T47D = test system: T47D
BT-549 = test system: BT-549
OVCAR-3 = test system: OVCAR-3
CAKI-1 = test system: CAKI-1

Measured: GI50

CC(C)(C)[C@@H]1NC(=O)CN1C(=O)OCc1ccccc1
inactive: SK-MEL-28 > 100 µM | UACC-257 > 100 µM | NCI-H226 > 100 µM | HCT-116 > 100 µM | SF-539 > 100 µM | EKVX > 100 µM | OVCAR-5 > 100 µM | 786-0 > 100 µM | SN12C > 100 µM | M14 > 100 µM | DU-145 > 100 µM | A498 > 100 µM | PC-3 > 100 µM | K562 > 100 µM | UO-31 > 100 µM | ACHN > 100 µM | T47D > 100 µM | BT-549 > 100 µM

Oc1nncc2[nH]c(-c3ccccc3)cc12
inactive: OVCAR-3 36.2 µM | CAKI-1 45.8 µM | UACC-257 30.5 µM | NCI-H226 86.1 µM | HCT-116 57.7 µM | EKVX 21.9 µM | OVCAR-5 95.1 µM | 786-0 75 µM | SN12C 54.1 µM | M14 51.8 µM | DU-145 79.8 µM | PC-3 30.1 µM | K562 44.1 µM | UO-31 67.1 µM | ACHN 46.3 µM | T47D 23.7 µM | BT-549 37.8 µM

O=C1c2c(ccc3c2CCC3)CC1Cc1ccc2c(c1)CCC2 (configuration not stated)
inactive: OVCAR-3 24.4 µM | SK-MEL-28 51.8 µM | UACC-257 18.5 µM | NCI-H226 28.2 µM | HCT-116 6.55 µM | SF-539 91 µM | EKVX 28.1 µM | OVCAR-5 90.2 µM | 786-0 32.3 µM | SN12C 23.4 µM | M14 32.1 µM | DU-145 27.3 µM | A498 27.1 µM | K562 14 µM | UO-31 56.6 µM | ACHN 36.1 µM | T47D 3.05 µM | BT-549 51.6 µM

CC(=O)N1C(c2[nH]c3ccccc3c2Cc2ccccc2)CCN1c1ccccc1 (configuration not stated)
inactive: OVCAR-3 > 10 µM | CAKI-1 8.47 µM | SK-MEL-28 > 10 µM | UACC-257 > 10 µM | NCI-H226 > 10 µM | HCT-116 4.72 µM | SF-539 > 10 µM | EKVX > 10 µM | OVCAR-5 > 10 µM | 786-0 > 10 µM | SN12C > 10 µM | M14 7.93 µM | DU-145 > 10 µM | PC-3 3.24 µM | K562 3.05 µM | UO-31 8.73 µM | ACHN 3.04 µM | T47D 6.41 µM | BT-549 > 10 µM

Fc1ccc(OCc2ccc3nc(-c4ccccc4)c(Cl)nc3c2)cc1
inactive: OVCAR-3 47.6 µM | CAKI-1 22.1 µM | SK-MEL-28 69.3 µM | UACC-257 > 100 µM | HCT-116 31.6 µM | SF-539 16 µM | EKVX 39.6 µM | OVCAR-5 41.7 µM | 786-0 16.9 µM | SN12C 56.6 µM | M14 67.8 µM | DU-145 30.5 µM | A498 25.8 µM | PC-3 37.2 µM | UO-31 > 100 µM | ACHN 25.4 µM | T47D 31.6 µM | BT-549 31.1 µM

CCN(c1cccc(NC(=S)Nc2ccccc2N(CC)c2cc(-c3ccccc3)no2)c1)c1cc(-c2ccccc2)no1
inactive: OVCAR-3 > 100 µM | CAKI-1 > 100 µM | SK-MEL-28 > 100 µM | UACC-257 > 100 µM | NCI-H226 > 100 µM | HCT-116 > 100 µM | SF-539 > 100 µM | EKVX > 100 µM | OVCAR-5 > 100 µM | 786-0 > 100 µM | SN12C > 100 µM | M14 > 100 µM | DU-145 > 100 µM | PC-3 > 100 µM | K562 > 100 µM | UO-31 > 100 µM | ACHN > 100 µM | T47D > 100 µM | BT-549 > 100 µM

CCOc1c2ccsc2c(OCC)c2ccsc12
inactive: OVCAR-3 3.52 µM | CAKI-1 4.61 µM | SK-MEL-28 9.38 µM | UACC-257 > 29.1 µM | HCT-116 4.06 µM | SF-539 2.41 µM | EKVX > 29.6 µM | OVCAR-5 11.8 µM | 786-0 4.44 µM | SN12C 20.6 µM | M14 4.69 µM | DU-145 5 µM | A498 7.03 µM | PC-3 3.94 µM | K562 2.95 µM | UO-31 9.02 µM | ACHN 7.1 µM | T47D 3.94 µM | BT-549 > 28.8 µM

N=C(N)NC1C(O)C(O)C(O)C(NC(=N)N)C1O (configuration not stated)
inactive: OVCAR-3 > 100 µM | CAKI-1 > 100 µM | SK-MEL-28 > 100 µM | UACC-257 > 100 µM | HCT-116 > 100 µM | SF-539 > 100 µM | EKVX > 100 µM | OVCAR-5 > 100 µM | 786-0 > 100 µM | SN12C > 100 µM | M14 > 100 µM | DU-145 > 100 µM | A498 > 100 µM | PC-3 > 100 µM | K562 > 100 µM | UO-31 > 100 µM | ACHN > 100 µM | T47D > 100 µM | BT-549 > 100 µM

CC(=O)/C(=C/NC(=S)c1ccncc1)C(=O)Nc1ccccc1C
inactive: OVCAR-3 > 100 µM | CAKI-1 > 100 µM | SK-MEL-28 > 100 µM | UACC-257 > 100 µM | NCI-H226 > 100 µM | HCT-116 > 100 µM | SF-539 > 100 µM | EKVX > 100 µM | OVCAR-5 > 100 µM | 786-0 > 100 µM | SN12C > 100 µM | M14 > 100 µM | DU-145 > 100 µM | A498 > 100 µM | UO-31 > 100 µM | ACHN > 100 µM | T47D > 100 µM | BT-549 > 100 µM

CC1NC(/C(=C/c2ccccc2O)NC(=O)c2ccccc2)OC1=O (configuration not stated)
inactive: OVCAR-3 > 50 µM | CAKI-1 > 50 µM | SK-MEL-28 > 50 µM | UACC-257 > 50 µM | NCI-H226 > 50 µM | HCT-116 > 50 µM | SF-539 11.5 µM | EKVX 30.4 µM | OVCAR-5 > 50 µM | 786-0 16.3 µM | SN12C > 50 µM | M14 > 50 µM | A498 > 50 µM | PC-3 30.7 µM | K562 > 50 µM | UO-31 > 50 µM | ACHN 22.4 µM | T47D 27.7 µM | BT-549 > 50 µM

CC(=O)OCC1OC(Oc2cc(C)c(O)cc2C/C=C(\C)CC/C=C(\C)CC(=O)CC(C)C)C(O)C(OC(C)=O)C1OC(C)=O (configuration not stated)
inactive: OVCAR-3 8.81 µM | CAKI-1 30.3 µM | SK-MEL-28 27.4 µM | UACC-257 12.1 µM | HCT-116 18.2 µM | EKVX 4.6 µM | OVCAR-5 1.83 µM | 786-0 21 µM | SN12C 15.2 µM | M14 5.22 µM | DU-145 23.3 µM | A498 11 µM | PC-3 14.2 µM | K562 9.38 µM | UO-31 3.28 µM | ACHN 14.2 µM | T47D 9.42 µM | BT-549 10.6 µM
